What was measured:
[1] = target: T1, Vascular endothelial growth factor receptor 2 (Homo sapiens, UniProt P35968); assay: Inhibition of human VEGFR-2 by ELISA method
MCF7 [2] = assay: Cytotoxicity against human MCF7 cells assessed as reduction in cell viability incubated for 48 hrs by MTT assay; format: functional, cell-based; conditions: MCF7, 48 h
[3] = target: T1, Vascular endothelial growth factor receptor 2; assay: Inhibition of VEGFR-2 in human MCF7 cells by ELISA method; format: cell-based
MCF7 [4] = assay: cells; conditions: Homo sapiens, MCF7, 72 h
Description: Cytotoxicity against human MCF7 cells assessed as reduction in cell viability incubated for 72 hrs by MTT assay

HCT-116 [5] = assay: cells; conditions: Homo sapiens, HCT-116, 72 h
Description: Cytotoxicity against human HCT-116 cells assessed as reduction in cell viability incubated for 72 hrs by MTT assay

HepG2 [6] = assay: cells; conditions: Homo sapiens, HepG2, 72 h
Description: Cytotoxicity against human HepG2 cells assessed as reduction in cell viability incubated for 72 hrs by MTT assay

[7] = target: T1, Vascular endothelial growth factor receptor 2; assay: Inhibition of VEGFR2 (unknown origin) using poly (Glu,Tyr) 4:1 as substrate measured after 1 hr in presence of ATP by ELISA method
[8] = target: T1, Vascular endothelial growth factor receptor 2; assay: Inhibition of VEGFR-2 (unknown origin) at 1 uM by ELISA method relative to control
HeLa [9] = assay: Cytotoxicity against human HeLa cells assessed as reduction in cell viability incubated for 72 hrs by CCK-8 assay; format: functional, cell-based
[10] = Cytotoxicity against human A549 cells assessed as reduction in cell viability incubated for 72 hrs by CCK-8 assay; format: toxicity, cell-based
[11] = Cytotoxicity against human HUVEC cells assessed as reduction in cell viability incubated for 72 hrs by CCK-8 assay; format: toxicity, cell-based
HT-29 = assay: Cytotoxicity against human HT-29 cells assessed as reduction in cell viability incubated for 72 hrs by CCK-8 assay; format: functional, cell-based; conditions: HT-29, 72 h
[12] = Cytotoxicity against human MDA-MB-435 cells assessed as reduction in cell viability incubated for 72 hrs by CCK-8 assay; format: toxicity, cell-based
NCI-H460 = assay: Cytotoxicity against human NCI-H460 cells assessed as reduction in cell growth incubated for 24 hrs by MTT assay; format: functional, cell-based; conditions: NCI-H460, 24 h
[13] = target: T1, Vascular endothelial growth factor receptor 2; assay: Inhibition of GST-tagged human recombinant VEGFR2 at 10 uM using Poly(4:1 Glu, Tyr) as substrate by Kinase-Glo Max reagent based luminescence analysis relative to control
A549 [14] = assay: Cytotoxicity against human A549 cells assessed as reduction in cell growth incubated for 24 hrs by MTT assay; format: functional, cell-based; conditions: A549, 24 h
HCT-116 [15] = assay: Antiproliferative activity against human HCT-116 cells assessed as reduction in cell viability incubated for 48 hrs by MTT assay; format: functional, cell-based; conditions: HCT-116, 48 h
A549 [16] = assay: Antiproliferative activity against human A549 cells assessed as reduction in cell viability incubated for 48 hrs by MTT assay; format: functional, cell-based; conditions: A549, 48 h
[17] = target: T1, Vascular endothelial growth factor receptor 2; assay: Inhibition of VEGFR-2 (unknown origin) at 1 uM using Poly(4:1 Glu, Tyr) as substrate by Kinase-Glo Max reagent based luminescence analysis relative to control
A549 [18] = assay: Antiproliferative activity against human A549 cells assessed as reduction in cell growth incubated for 48 hrs by MTT assay; format: toxicity, cell-based; conditions: A549, 48 h
[19] = Antiproliferative activity against human HUVEC cells assessed as reduction in cell growth incubated for 48 hrs by MTT assay; format: toxicity, cell-based
HeLa [20] = assay: Antiproliferative activity against human HeLa cells assessed as reduction in cell growth incubated for 48 hrs by MTT assay; format: toxicity, cell-based
NCI-H1975 = assay: Antiproliferative activity against human NCI-H1975 cells assessed as reduction in cell growth incubated for 48 hrs by MTT assay; format: toxicity, cell-based; conditions: NCI-H1975, 48 h
[21] = target: T1, Vascular endothelial growth factor receptor 2; assay: Inhibition of VEGFR2 in human MCF7 cells by horseradish peroxidase-coupled TMB substrate based ELISA; format: cell-based
MCF7 [22] = assay: Cytotoxicity against human MCF7 cells assessed as reduction in cell viability incubated for 48 hrs by SRB assay; format: functional, cell-based; conditions: MCF7, 48 h
HepG2 [23] = assay: Cytotoxicity against human HepG2 cells assessed as reduction in cell growth by MTT assay; format: functional, cell-based
HCT-116 [24] = assay: Cytotoxicity against human HCT-116 cells assessed as reduction in cell growth by MTT assay; format: functional, cell-based
MCF7 [25] = assay: Cytotoxicity against human MCF7 cells assessed as reduction in cell growth by MTT assay; format: functional, cell-based
NCI-H522 = assay: Inhibition of cell proliferation in human NCI-H522 cells at 0.3 uM relative to control; format: functional
SK-MEL-2 = assay: Inhibition of cell proliferation in human SK-MEL-2 cells at 0.3 uM relative to control; format: functional
UO-31 = assay: Antiproliferative activity against human UO-31 cells assessed as reduction in cell viability incubated for 48 hrs by MTT assay; format: functional, cell-based; conditions: UO-31, 48 h
HCT-116 [26] = assay: Antiproliferative activity against human HCT-116 cells assessed as cell growth inhibition measured for 24 hrs by MTT assay; format: functional, cell-based; conditions: HCT-116, 24 h
MCF7 [27] = assay: Antiproliferative activity against human MCF7 cells assessed as cell growth inhibition measured for 24 hrs by MTT assay; format: functional, cell-based; conditions: MCF7, 24 h
HepG2 [28] = assay: Antiproliferative activity against human HepG2 cells assessed as cell growth inhibition measured for 24 hrs by MTT assay; format: functional, cell-based; conditions: HepG2, 24 h
A549 [29] = assay: Cytotoxicity against human A549 cells; format: functional, cell-based
DU-145 = assay: Cytotoxicity against human DU-145 cells; format: functional, cell-based
MCF7 [30] = assay: Cytotoxicity against human MCF7 cells; format: functional, cell-based

T1 sequence (P35968 whole entry): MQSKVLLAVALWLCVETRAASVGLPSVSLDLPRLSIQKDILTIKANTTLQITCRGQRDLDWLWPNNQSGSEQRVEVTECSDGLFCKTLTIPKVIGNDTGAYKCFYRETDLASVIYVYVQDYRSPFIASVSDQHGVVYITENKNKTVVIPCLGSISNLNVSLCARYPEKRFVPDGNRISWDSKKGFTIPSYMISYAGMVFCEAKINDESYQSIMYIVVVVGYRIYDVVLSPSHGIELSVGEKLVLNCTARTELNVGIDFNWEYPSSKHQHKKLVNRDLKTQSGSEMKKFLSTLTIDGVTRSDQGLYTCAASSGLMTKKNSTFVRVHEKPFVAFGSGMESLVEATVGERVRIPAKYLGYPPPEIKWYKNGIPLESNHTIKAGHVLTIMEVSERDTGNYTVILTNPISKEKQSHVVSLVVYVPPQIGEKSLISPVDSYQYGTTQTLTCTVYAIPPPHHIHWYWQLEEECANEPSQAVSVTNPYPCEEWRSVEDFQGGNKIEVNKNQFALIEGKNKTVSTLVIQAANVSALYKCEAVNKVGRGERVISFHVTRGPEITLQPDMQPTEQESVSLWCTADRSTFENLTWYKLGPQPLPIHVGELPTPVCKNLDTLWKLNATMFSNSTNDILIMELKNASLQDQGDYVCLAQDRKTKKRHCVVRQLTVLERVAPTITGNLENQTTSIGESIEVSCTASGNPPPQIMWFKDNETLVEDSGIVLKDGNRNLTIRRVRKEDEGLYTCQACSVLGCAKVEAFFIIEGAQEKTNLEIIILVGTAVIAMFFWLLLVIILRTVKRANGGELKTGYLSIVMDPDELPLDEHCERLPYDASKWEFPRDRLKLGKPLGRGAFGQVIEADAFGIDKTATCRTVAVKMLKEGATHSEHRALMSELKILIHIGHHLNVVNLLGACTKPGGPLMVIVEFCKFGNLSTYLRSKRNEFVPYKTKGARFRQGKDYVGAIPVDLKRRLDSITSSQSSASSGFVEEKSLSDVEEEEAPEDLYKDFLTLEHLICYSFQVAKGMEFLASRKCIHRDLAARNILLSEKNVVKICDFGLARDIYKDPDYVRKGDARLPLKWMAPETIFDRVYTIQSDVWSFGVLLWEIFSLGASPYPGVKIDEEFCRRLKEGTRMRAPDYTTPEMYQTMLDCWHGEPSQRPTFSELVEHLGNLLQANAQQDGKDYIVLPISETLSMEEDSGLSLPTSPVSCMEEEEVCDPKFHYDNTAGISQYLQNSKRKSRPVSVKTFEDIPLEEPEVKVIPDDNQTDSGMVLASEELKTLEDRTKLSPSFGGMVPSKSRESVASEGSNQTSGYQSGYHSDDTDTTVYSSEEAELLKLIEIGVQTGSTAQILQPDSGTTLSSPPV

For O=C(Nc1ccc([N+](=O)[O-])cc1)Nc1cccc(-c2nc3ccccc3[nH]2)c1, which IC50 [1] is on record?
Its IC50 is 0.0067 µM.

And the IC50 (MCF7 [2])?
Its IC50 is 7.18 µM.

And the IC50 [3]?
Its IC50 is 0.0068 µM.

What does the source list for O=C(CCSc1nc2ccccc2o1)Nc1ccc(S(=O)(=O)NC(=O)Nc2ccccc2)cc1?
IC50 (MCF7 [4]): 9.95 µM; IC50 (HCT-116 [5]): 9.52 µM; IC50 (HepG2 [6]): 8.75 µM

Which IC50 (MCF7 [4]) does the source give for O=C(CCSc1nc2ccccc2o1)Nc1ccc(S(=O)(=O)NC(=O)NC2CCCCC2)cc1 here?
The IC50 was 8.93 µM.

And the IC50 [7]?
The IC50 was 0.08 µM.

What about the IC50 (HCT-116 [5]) of the same compound?
Its IC50 is 7.14 µM.

And the IC50 (HepG2 [6])?
Its IC50 is 5.93 µM.

With O=C(OCc1nc2ccccc2[nH]1)c1c[nH]c2ccccc12 as the compound, how does the inhibition [8] read?
The inhibition was 34%.

And the IC50 (HeLa [9])?
The IC50 was 0.19 µM.

And the IC50 at 72 h [10]?
The IC50 at 72 h was 0.54 µM.

What about the IC50 at 72 h [11] of the same compound?
The IC50 at 72 h was 0.56 µM.

What about the IC50 (HT-29) of the same compound?
Its IC50 is 0.19 µM.

What about the IC50 at 72 h [12] of the same compound?
Its IC50 at 72 h is 0.37 µM.

With COc1ccc(/C=N/N=C(/c2ccccc2)c2ccc3nc(-c4ccc(Cl)cc4)[nH]c3c2)cc1 as the compound, how does the IC50 (NCI-H460) read?
The IC50 was 1.71 µM.

What about the inhibition [13] of the same compound?
The inhibition was 86.2%.

And the IC50 (A549 [14])?
Its IC50 is 3.58 µM.

Which results are given for O=C(CCc1nnc2sc(-c3ccc(Br)cc3)nn12)c1nc2cc([N+](=O)[O-])ccc2[nH]1?
IC50 (HCT-116 [15]): 9.03 µM; IC50 (A549 [16]): 6.17 µM

What does the source list for O=C(Nc1ccc(OC(F)(F)F)cc1)Nc1ccc2oc(-c3ccccc3Cl)nc2c1?
inhibition [17]: 98.6%; IC50 (A549 [18]): 7.61 µM; IC50 at 48 h [19]: 8.46 µM; IC50 (HeLa [20]): 0.28 µM; IC50 (NCI-H1975): 1.4 µM

What does the source list for Cn1c(COC(=O)c2c[nH]c3ccc(Br)cc23)nc2ccccc21?
inhibition [8]: 28.8%; IC50 (HeLa [9]): 0.33 µM; IC50 at 72 h [10]: 0.45 µM; IC50 at 72 h [11]: 0.32 µM; IC50 (HT-29): 0.33 µM; IC50 at 72 h [12]: 0.27 µM

For CCNC(=S)NS(=O)(=O)c1ccc(NC(=O)CCSc2nc3ccccc3o2)cc1, which IC50 (MCF7 [4]) is on record?
The IC50 was 12.3 µM.

What about the IC50 (HCT-116 [5]) of the same compound?
The IC50 was 7.91 µM.

And the IC50 (HepG2 [6])?
The IC50 was 8.1 µM.

What does the source list for Cc1ccc2oc(SCCC(=O)Nc3ccc(S(=O)(=O)NC(=O)Nc4ccccc4)cc3)nc2c1?
IC50 (MCF7 [4]): 10.1 µM; IC50 (HCT-116 [5]): 9.1 µM; IC50 (HepG2 [6]): 6.58 µM

For COc1cc(-c2nc3ccccc3s2)ccc1OCC(=O)N/N=C/c1ccc(O)cc1, which IC50 [21] is on record?
The IC50 was 0.19 µM.

And the IC50 (MCF7 [22])?
The IC50 was 7.83 µM.

What does the source list for Cc1c(C(=O)NNC(=S)Nc2ccc(Cl)cc2)nnn1Cc1nc2ccccc2[nH]1?
IC50 (HepG2 [23]): 7.8 µM; IC50 (HCT-116 [24]): 8.34 µM; IC50 (MCF7 [25]): 6.81 µM

Which IC50 [1] does the source give for O=[N+]([O-])c1ccc(NC(=S)Nc2cccc(-c3nc4ccccc4[nH]3)c2)cc1 here?
Its IC50 is 0.0067 µM.

What about the IC50 (MCF7 [2]) of the same compound?
The IC50 was 5.84 µM.

And the IC50 [3]?
Its IC50 is 0.0089 µM.

Which results are given for COc1cc(C2OC(CCC(=O)c3nc4cc([N+](=O)[O-])ccc4[nH]3)=NN2C(C)=O)cc(OC)c1OC (centres undefined)?
inhibition at 0.3 µM (NCI-H522): 48.7%; inhibition at 0.3 µM (SK-MEL-2): 42.6%; IC50 (UO-31): 19.1 µM

Which IC50 (HCT-116 [26]) does the source give for O=C(CSc1nc2ccccc2o1)Nc1ccc(C(=O)Nc2ccc([N+](=O)[O-])cc2)cc1 here?
The IC50 was 2.79 µM.

What about the IC50 (MCF7 [27]) of the same compound?
Its IC50 is 3.43 µM.

What about the IC50 (HepG2 [28]) of the same compound?
The IC50 was 2.43 µM.

For O=C(CSc1nc2ccccc2o1)Nc1ccc(C(=O)NC2CCCCC2)cc1, which IC50 (HCT-116 [26]) is on record?
The IC50 was 7.8 µM.

And the IC50 (MCF7 [27])?
The IC50 was 7.2 µM.

Which results are given for Clc1cccc(Cl)c1CNc1cccc(-c2nc3ccccc3[nH]2)c1?
IC50 [1]: 0.0067 µM; IC50 (MCF7 [2]): 6.3 µM; IC50 [3]: 0.0069 µM

For COc1cc(/C=C2/C=C(c3nc4ccccc4[nH]3)NC2=O)ccc1O, which IC50 (A549 [29]) is on record?
Its IC50 is 9.6 µM.

And the IC50 (DU-145)?
The IC50 was 8.7 µM.

And the IC50 (MCF7 [30])?
The IC50 was 7.3 µM.

Which IC50 (MCF7 [4]) does the source give for Cc1ccc2oc(SCCC(=O)Nc3ccc(S(=O)(=O)NC(=O)NC4CCCCC4)cc3)nc2c1 here?
The IC50 was 8.67 µM.

And the IC50 (HCT-116 [5])?
The IC50 was 6.93 µM.

And the IC50 (HepG2 [6])?
The IC50 was 4.13 µM.

For O=C(CCc1nnc2sc(COc3ccccc3)nn12)c1nc2cc([N+](=O)[O-])ccc2[nH]1, which IC50 (UO-31) is on record?
The IC50 was 32.9 µM.

From ChEMBL document CHEMBL6103539, “A critical analysis of design, binding pattern and SAR of benzo-fused heteronuclear compounds as VEGFR-2 inhibitors” (Bioorg Med Chem, 2024)
